Where “and” joins values, the source holds several entries; their conditions need not be identical. Equal entries are not always repeated. Where two headings read alike, the source gives them in different places.
Key:
Assay type in all cases: binding
FABP3 = target: T1, FABP3 (Homo sapiens, UniProt P05413); assay: CW EPR spectra and spectral simulations of spin-probed fatty acids with FABP3; settings: for increase of intermediately bound component: FABPx/16-DSA 20/20 μM
T1 construct: purchased Sigma Aldrich
Description: (§1) For a more in-depth view of the binding mechanism, CW EPR spectra of 5/16-DSA with concentration series of the FABPs were measured and simulated. […] Equal concentrations of 20 μM of each spin probe (5- and 16-DSA) were mixed with FABP concentrations of 0 to 200 μM, increasing the resulting ligand/protein ratio in the samples stepwise from 1/0 to 1/10.
(§2) To analyze the spectra quantitatively, subsequent EPR spectral simulations were performed (Fig. 2, B and C). […] For a better understanding, a first interpretation of these components is given at this point. The rotational dynamics are thought to be indirectly proportional to the strength of intermolecular interactions between fatty acid and FABP. Therefore, they are indicative of the binding state of the fatty acids. Higher rotational correlation times signalize lower ligand dynamics and stronger interactions with the protein. […] This exchange broadening can only occur if radicals are located very close distance each other, colliding with each other, leading to partial overlap of spin-bearing orbitals.
(§3) The fractions (weights) Φx of the spectral components were extracted from the EPR simulations of the concentration series and were used to calculate the concentrations of all components with Eq (1). in Figure 3. This was performed for the intermediately and strongly bound components, as well as for their sum, called totally bound 5/16-DSA, to construct binding curves for all FABPs and spin probes. […] Different fit functions were applied to the curves for a better qualitative and quantitative analysis.

FABP4 = target: T2, FABP4 (Homo sapiens, UniProt P15090); assay: CW EPR spectra and spectral simulations of spin-probed fatty acids with FABP4
T2 construct: purchased Sigma Aldrich
Description: as §1, §2, §3

FABP5 [1] = target: T3, FABP5 (Homo sapiens, UniProt Q01469); assay: CW EPR spectra and spectral simulations of spin-probed fatty acids with FABP5; settings: for increase of intermediately bound component: FABPx/16-DSA 20/20 μM
T3 construct: purchased Sigma Aldrich
Description: as §1, §2, §3

FABP5 [2] = target: T3, FABP5; assay: DHA displacement of 16-DSA from FABP5 by CW EPR; settings: FABP5/16-DSA/DHA 20/20/0, before DHA addition
From the text: In a second addition during revision, we were curious about the question of whether our model ligands that bind with medium affinity to the FABP binding pocket will be displaced when we add a native ligand with higher affinity and whether we could detect this displacement with our CW EPR setup. The native ligand DHA was chosen for this displacement analysis since it is well-known to bind with high affinity to FABP5 ([26]). DHA was pre-dissolved in ethanol, diluted into buffer, and mixed with FABP5 and 16-DSA. […] Samples with FABP5/16-DSA/DHA ratios 20/20/0, 20/20/5, 20/20/10, 20/20/20, 20/20/50, and 20/20/100 were prepared with 5 min incubation time in between 16-DSA and DHA addition. […] We assume that the well-known high binding affinity of DHA refers to the state of strong binding within the pocket. […] Instead, a dynamic exchange of ligands seems to occur, as we consistently observe it with albumins from different species. However, this part opens the way to other future competitive binding assays via CW EPR spectroscopy, e.g., with pharmaceuticals that bind to FABPs.
CW EPR spectroscopic measurements were performed at X-band frequencies (∼9.4 GHz) with a benchtop spectrometer Magnettech MS-5000 (Freiberg Instruments GmbH, now Bruker Biospin). The samples were prepared in low-binding PCR tubes (250 μl). Protein and 5/16-DSA solutions were mixed with HEPES/NaCl buffer at pH 7.5, to obtain samples with a constant 5/16-DSA concentration of 20 μM and varying FABP concentrations of 200, 100, 50, 35, 25, 20, 15, 10 and 5 μM. After an incubation time of 20 min, the samples were transferred into glass capillaries, which were sealed with ‘Critoseal’. At first, solutions with 20 μM of 5/16-DSA were measured as references at 37 °C. The concentration series of FABP with 20 μM 5/16-DSA were measured at 37 °C, directly after preparation. Afterward, the sample capillaries were stored at 4 °C, and subsequent temperature-dependent measurements were performed. […]

[3] = 37 °C, 20 μM spin probe, EPR binding curve, read-out: KD,T,75′ (fit), apparent KD read at 75% totally bound
[4] = FABP3/16-DSA 100/100 μM/μM, 37 °C
[5] = changing the buffer from HEPES to TRIS, pH 7.5
[6] = lowering the pH from 7.5 to 6 in HEPES/NaCl
[7] = Hill fit, totally bound (T), y = bound 5/16-DSA
[8] = read-out: KD,T,50′ (fit), apparent KD read at 50% totally bound, 37 °C, 20 μM spin probe, EPR binding curve
[9] = Hill fit of EPR binding curve, totally bound, 37 °C
[10] = FABP5/16-DSA 100/100 μM/μM, 37 °C

T2 sequence (P15090 whole entry): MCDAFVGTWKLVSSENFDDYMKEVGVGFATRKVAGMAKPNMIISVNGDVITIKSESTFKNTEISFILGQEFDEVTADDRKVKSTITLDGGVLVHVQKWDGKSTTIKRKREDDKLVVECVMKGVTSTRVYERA
T1 sequence (P05413 whole entry): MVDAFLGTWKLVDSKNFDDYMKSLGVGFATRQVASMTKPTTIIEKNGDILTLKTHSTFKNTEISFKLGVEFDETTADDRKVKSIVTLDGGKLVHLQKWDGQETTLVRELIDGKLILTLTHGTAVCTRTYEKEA
T3 sequence (Q01469 whole entry): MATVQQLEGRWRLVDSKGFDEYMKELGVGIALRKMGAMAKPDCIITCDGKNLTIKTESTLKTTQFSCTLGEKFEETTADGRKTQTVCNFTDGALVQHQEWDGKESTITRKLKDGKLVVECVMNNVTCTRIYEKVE

## CCC1(CCCCCCCCCCCCCCC(=O)O)OCC(C)(C)N1[O] (stereo not drawn) [16-DSA, 16-DOXYL stearic acid]
FABP3; 37 °C, 20 μM FABP3, 20 μM spin probe, read-out: KD,T,20μM (calculated, totally bound)
  Kd: 1.08 ± 0.55 µM
FABP3; [3]
  Kd: 18 ± 0.2 µM
FABP3; 37 °C, 50 μM FABP3, 20 μM spin probe, read-out: KD,T,50μM (calculated, totally bound)
  Kd: 0.81 µM
FABP3; 37 °C, 100 μM FABP3
  ΔGF−I,100μM (free to intermediately bound): -8.05 ± 0.598 kcal/mol
  ΔGF−S,100μM (free to strongly bound): -3.13 ± 0.024 kcal/mol
  ΔGF−T,100μM (free to totally bound): -8.96 ± 1.29 kcal/mol
  ΔGI−S,100μM (intermediately to strongly bound): 2.53 ± 0.048 kcal/mol
FABP3; 37 °C, 100 μM FABP3, 20 μM spin probe, read-out: KD,T,100μM (calculated, totally bound)
  Kd: 0.48 µM
FABP3; 37 °C, EPR simulation
  aiso, component (1) free: 44.1 MHz
  aiso, component (2) intermediately bound: 41.6–42.6 MHz
  aiso, component (3) strongly bound: 38.7 MHz
  τc,iso, component (1) free: 0.04–0.1 ns
  τc,iso, component (2) intermediately bound: 5.2–8.4 ns
  τc,iso, component (3) strongly bound: 19.1–22.2 ns
FABP3; FABP3/16-DSA 10/10 μM/μM, 37 °C
  intermediately bound proportion: 67.1%
FABP3; FABP3/16-DSA 20/20 μM/μM, 37 °C
  intermediately bound proportion: 72.6%
FABP3; FABP3/16-DSA 50/50 μM/μM, 37 °C
  intermediately bound proportion: 85.9%
FABP3; [4]
  intermediately bound proportion: 90.3%
  strongly bound component: 2.8%
FABP3; [5]
  increase of intermediately bound component: 6 to 8%
FABP3; [6]
  increase of intermediately bound component: 16 to 18%
FABP3; Hill fit, totally bound (T), x = c(FABP3)/c(5/16-DSA)
  Hill fit k: 0.535 ± 0.005
FABP3; [7]
  Hill fit Vmax: 100.399 ± 0.459
FABP3; [8]
  Kd: 10.6 ± 0.1 µM
FABP4; 37 °C, 20 μM FABP4, 20 μM spin probe, read-out: KD,T,20μM (calculated, totally bound)
  Kd: 10 ± 0.75 µM
FABP4; [3]
  Kd: 43.6 ± 0.4 µM
FABP4; 37 °C, 50 μM FABP4, 20 μM spin probe, read-out: KD,T,50μM (calculated, totally bound)
  Kd: 8.5 ± 4.1 µM
FABP4; 37 °C, 100 μM FABP4
  ΔGF−I,100μM (free to intermediately bound): -6.79 ± 0.22 kcal/mol
  ΔGF−T,100μM (free to totally bound): -6.79 ± 0.22 kcal/mol
FABP4; 37 °C, 100 μM FABP4, 20 μM spin probe, read-out: KD,T,100μM (calculated, totally bound)
  Kd: 16.7 ± 0.44 µM
FABP4; 37 °C, EPR simulation
  aiso, component (1) free: 44.1 MHz
  aiso, component (2) intermediately bound: 44.7–48.0 MHz
  τc,iso, component (1) free: 0.05–0.13 ns
  τc,iso, component (2) intermediately bound: 4.0–5.8 ns
  τc,iso, component (3) strongly bound: 22.2 ns
FABP4; [9]
  Hill coefficient n: 1.454 and > 1
FABP4; Hill fit, totally bound (T), x = c(FABP4)/c(5/16-DSA)
  Hill fit k: 0.797 ± 0.047
FABP4; [7]
  Hill fit Vmax: 92.29 ± 2.876
FABP4; [8]
  Kd: 17.8 ± 0.2 µM
FABP5 [1]; 37 °C, 20 μM FABP5, 20 μM spin probe, read-out: KD,T,20μM (calculated, totally bound)
  Kd: 2.14 ± 0.7 µM
FABP5 [1]; [3]
  Kd: 22 ± 0.2 µM
FABP5 [1]; 37 °C, 50 μM FABP5, 20 μM spin probe, read-out: KD,T,50μM (calculated, totally bound)
  Kd: 5.87 ± 1.21 µM
FABP5 [1]; 37 °C, 100 μM FABP5
  ΔGF−I,100μM (free to intermediately bound): -6.38 ± 0.072 kcal/mol
  ΔGF−S,100μM (free to strongly bound): -4.64 ± 0.024 kcal/mol
  ΔGF−T,100μM (free to totally bound): -7.17 ± 0.19 kcal/mol
  ΔGI−S,100μM (intermediately to strongly bound): 0.956 ± 0.024 kcal/mol
FABP5 [1]; 37 °C, 100 μM FABP5, 20 μM spin probe, read-out: KD,T,100μM (calculated, totally bound)
  Kd: 8.9 ± 0.34 µM
FABP5 [1]; 37 °C, EPR simulation
  aiso, component (1) free: 44.1 MHz
  aiso, component (2) intermediately bound: 37–42.3 MHz
  aiso, component (3) strongly bound: 37 MHz
  τc,iso, component (1) free: 0.05–0.07 ns
  τc,iso, component (2) intermediately bound: 5.7 ns
  τc,iso, component (3) strongly bound: 22.2 ns
FABP5 [1]; 37 °C, high FABP5 excess
  totally bound fraction: 93%
FABP5 [1]; FABP5/16-DSA 10/10 μM/μM, 37 °C
  intermediately bound proportion: 61.5%
FABP5 [1]; FABP5/16-DSA 20/20 μM/μM, 37 °C
  intermediately bound proportion: 72.2%
FABP5 [1]; FABP5/16-DSA 50/50 μM/μM, 37 °C
  intermediately bound proportion: 80.8%
FABP5 [1]; [10]
  intermediately bound proportion: 81%
  strongly bound component: 9.5%
FABP5 [1]; [5]
  increase of intermediately bound component: 6 to 8%
FABP5 [1]; [6]
  increase of intermediately bound component: 16 to 18%
FABP5 [1]; [9]
  Hill coefficient n: 0.852 ± 0.04 and < 1
FABP5 [1]; Hill fit, totally bound (T), x = c(FABP5)/c(5/16-DSA)
  Hill fit k: 0.315 ± 0.011
FABP5 [1]; [7]
  Hill fit Vmax: 98.288 ± 1.318
FABP5 [1]; [8]
  Kd: 7.6 ± 0.1 µM
FABP5 [2]
  bound 16-DSA: 72%

From paper PMC11231610, “Fatty acid binding to the human transport proteins FABP3, FABP4, and FABP5 from a Ligand’s perspective” (The Journal of Biological Chemistry, 2024)
